Measured values reported in US20240140953A1, “INHIBITORS OF MENIN-MLL INTERACTION” (BIOMEA FUSION, INC., priority 2018, published 2024).
Read-outs that look alike come from different tables or passages of the source.

Key:
[1] = system: MOLM-13; test: Long term proliferation, Cell Titer-Glo (Table 3B), MOLM-13; type: cell-based; conditions: Homo sapiens, MOLM-13, Cell Titer-Glo
[2] = system: KG-1; test: Long term proliferation, InCell (Table 3C), KG-1; type: cell-based; conditions: Homo sapiens, KG-1, InCell
Experimental: (§1) Compounds of invention are tested in the 5 suspension lines by 14-day long-term proliferation assay.
(§2) The compound is tested in 10-pt dose titration (client will determine the starting concentration and the dilution scheme) and the final DMSO concentration is kept at 0.2%.
(§3) Vehicle and media control are also included. All treatments are done in triplicate.
(§4) • 1) On Day 0, in a flat bottom 96-well plate, add 100 μL of cells per well at the densities optimized. • 2) Prepare compounds in DMSO at 500× final concentration. Dilute the compounds with DMSO at the dilution. • 3) Dilute the compounds in media at 3×final concentration. Add 50 μL of compound or DMSO at 3× final concentration to each well. Final volume in each well is 150 μL, and final concentration of DMSO is 0.2%. Also include 3 untreated control wells, by adding 50 μL of media alone. 4) Incubate plates for 96 hours. • 5) Count the cells using the Acumen, with capabilities for 96-well plates. Pipette cells up and down to mix in each well, and add desired volume of cells to a new flat bottom poly-D-lysine 96-well plate. Add Calcein AM at 1 μM final concentration. Let cells sit at RT for 10 mins followed by a quick spin to get cells settled on the bottom of the wells. Incubate the plate for additional 40 mins in the incubator. Take out the plate and read by Acumen. Calculate the cell numbers taken into account the dilution factors. • 6) Split the master plate. To do this take the total viable cell count calculated using step 5). Take the average of the replicates for each dose in order to be used in splitting the cells. • 7) Use a 96 well V-bottom plate to spin down the cells to remove old media and compound to split the cells. Based on the split ratio place the proper amount of media and cells into the V-bottom plate, and spin the plate at 1100 rpm for 5 minutes. • 8) Following the spin remove the media, careful not to disturb the cellpellet. • 9) Re-suspend pellet in 100 μL fresh media, and add to a new 96-well flat bottom plate. • 10) Add fresh compound, in the same manner as Step 3). • 11) Incubate plates for 72 hours. Repeat steps 5)-10) on Day 7. • 12) Incubate plates for 96 hours. Repeat Step 5)-10) on Day 11. • 13) Incubate 72 hours and repeat step 5) to take a final count. • 14) Data Analysis
(§5) To calculate growth for days 4, 7, 11, and 14: • Calculate the split factor for day 4 to 7, day 7 to 11, and day 11-14.

[3] = system: OCI-AML-3; test: Long term proliferation, Cell Titer-Glo (Table 3B), OCI-AML-3; type: cell-based; conditions: Homo sapiens, OCI-AML-3, Cell Titer-Glo
[4] = system: KG-1; test: Long term proliferation, Cell Titer-Glo (Table 3B), KG-1; type: cell-based; conditions: Homo sapiens, KG-1, Cell Titer-Glo
[5] = system: OCI-AML-3; test: Long term proliferation, InCell (Table 3C), OCI-AML-3; type: cell-based; conditions: Homo sapiens, OCI-AML-3, InCell
Experimental: as §1, §2, §3, §4, §5

[6] = system: MV4-11; test: Long term proliferation, InCell (Table 3C), MV4-11; type: cell-based; conditions: Homo sapiens, MV4-11, InCell
Experimental: as §1, §2, §3, §4, §5

[7] = system: HL-60; test: LTP assay, CellTiterGlo, T4-T14 (Example 103), HL-60; type: cell-based; conditions: for inhibition of cell viability (in words): HL-60, LTP assay
Experimental: (§6) The day of the experiment (T0) all the cell line suspensions were counted by Cell Viability Analyser, Vi-CELL and properly diluted with fresh medium to obtain the cell density reported in the Test System paragraph.
(§7) Cells were tested after 4 passages after thawing.
(§8) 200 μL/well and 150 μL/well of cell suspension were added into the 0.4 μL/well and 0.3 μL/well compound plates, respectively. • Cell plate containing 200 μL/well suspension was incubated at 37° C. in a humidified incubator with 5% CO2. • From each well of the 150 μL/well cell assay plate, 100 μL were harvested and transferred into a 96-well Optiplate (Perkin Elmer, Cat. n. 6005290) and cell viability was measured as described in 4.3 paragraphs (T0).
(§9) After four days in culture (T4) 150 μL/well of fresh medium were added into a new 0.3 μL/well copy compound plate. • From each well of the 200 μL/well cell assay plate: • 100 μL were sampled for the cell viability measurement as described in 4.3 paragraphs (T4). • 50 μL were harvested and added to the 150 μL/well compound plate prepared as described in the first point to dilute 1:4 the cell suspension. • The cell assay plate diluted and containing 200 μL/well suspension were incubated at 37° C. in a humidified incubator with 5% Co2.
(§10) At T7-T11-T14 it was proceeded as described in T4, with the exception that no further cell dilution was carried out at T14.
(§11) Plates containing the samples to be tested were equilibrated at room temperature for approximately 30 min and then 30 μL/well of the Promega CellTiterGlo® reagent were added.
(§12) Contents will be mixed for 5 min on an orbital shaker to induce cell lysis and then incubated at room temperature for an additional 10 min to stabilize the luminescent signal.
(§13) Luminescence was read by using VictorV (Perkin Elmer) multilabel plate reader using the standard protocol for luminescence in 96 well plate.
(§14) Data were expressed as % of inhibition compared to the 0.2% DMSO negative control, and was calculated as follows: […]
(§15) CRCs were analysed by GraphPad and IC50 values were calculated by non-linear regression using 4 parameter-logistic equation. IC50 (μM) values were reported in the final data table.
(§16) The curve fittings were performed leaving free all the parameters. Any constrain were reported in the results table.

[8] = system: RS4-11 (MLL-AF4); test: LTP assay, CellTiterGlo, T4-T14 (Example 103), RS4-11; type: cell-based; conditions: for inhibition of cell viability (in words): RS4;11, LTP assay
Experimental: as §6, §7, §8, §9, §10, §11, §12, §13, §14, §15, §16

[9] = target: menin (Homo sapiens (Human), UniProt O00255); test: Kd (Table 3A); type: binding
[10] = 96 h, Day 4, read-out: Day 4 IC50
[11] = 168 h, Day 7, read-out: Day 7 IC50
[12] = 264 h, Day 11, read-out: Day 11 IC50
[13] = 336 h, Day 14, read-out: Day 14 IC50
[14] = HL-60, T4 (Day 4), read-out: IC50 T4 (Day 4)
[15] = Homo sapiens, HL-60, 96 h, HL-60, T4 (Day 4), read-out: IC50 T4 (Day 4)
[16] = Homo sapiens, HL-60, HL-60, T7, read-out: IC50 T7
[17] = Homo sapiens, HL-60, HL-60, T11, read-out: IC50 T11
[18] = Homo sapiens, HL-60, HL-60, T14, read-out: IC50 T14
[19] = Homo sapiens, RS4-11, 96 h, RS4-11 (MLL-AF4), T4 (Day 4), read-out: IC50 T4 (Day 4)
[20] = Homo sapiens, RS4-11, RS4-11 (MLL-AF4), T7, read-out: IC50 T7
[21] = Homo sapiens, RS4-11, RS4-11 (MLL-AF4), T11, read-out: IC50 T11

menin, sequence (O00255 whole entry, species assumed): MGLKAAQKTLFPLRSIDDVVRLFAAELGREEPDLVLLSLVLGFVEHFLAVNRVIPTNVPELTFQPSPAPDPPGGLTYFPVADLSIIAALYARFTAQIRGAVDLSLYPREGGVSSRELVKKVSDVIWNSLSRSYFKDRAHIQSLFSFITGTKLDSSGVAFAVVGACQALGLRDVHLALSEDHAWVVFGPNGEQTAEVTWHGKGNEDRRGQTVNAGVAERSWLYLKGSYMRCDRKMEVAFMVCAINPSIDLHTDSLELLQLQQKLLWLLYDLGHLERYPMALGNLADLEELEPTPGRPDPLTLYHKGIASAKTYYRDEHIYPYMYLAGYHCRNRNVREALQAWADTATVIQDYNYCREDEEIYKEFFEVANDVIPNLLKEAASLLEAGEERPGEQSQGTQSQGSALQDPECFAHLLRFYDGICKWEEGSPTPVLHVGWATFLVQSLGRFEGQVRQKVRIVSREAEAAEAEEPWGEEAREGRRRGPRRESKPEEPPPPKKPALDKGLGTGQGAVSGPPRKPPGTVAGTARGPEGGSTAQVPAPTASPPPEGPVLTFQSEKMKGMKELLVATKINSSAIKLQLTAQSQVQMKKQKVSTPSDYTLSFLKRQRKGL

| IC50 [7, 14] [nM] | IC50 ([7]; HL-60, T7, read-out: IC50 T7) [nM] | IC50 [7, 15] [nM] | IC50 [7, 16] [nM] | IC50 [7, 17] [nM] | IC50 [7, 18] [nM] | IC50 [8, 19] [nM] | IC50 [8, 20] [nM] | IC50 [8, 21] [nM] | SMILES | inhibition of cell viability (in words) [7] | inhibition of cell viability (in words) [8] | also measured |
| --- | --- | --- | --- | --- | --- | --- | --- | --- | --- | --- | --- | --- |
| – | – | – | – | – | – | – | – | – | O=C(Nc1ccc(-c2cc3c(N4CCOCC4)ncnc3[nH]2)cc1)Nc1cc(-c2cccnc2)n[nH]1 [Compound 9, 1-{4-[4-(morpholin-4-yl)-7H-pyrrolo[2,3-d]pyrimidin-6-yl]phenyl}-3-[3-(pyridin-3-yl)-1H-pyrazol-5-yl]urea] | – | – | IC50 [1, 10]: 410 nM; IC50 [1, 11]: 240 nM; IC50 [1, 12]: 240 nM; IC50 [1, 13]: 480 nM; IC50 [2, 10]: 3310 nM; IC50 [2, 12]: 2290 nM; IC50 [3, 10]: 870 nM; IC50 [3, 11]: 710 nM; IC50 [3, 12]: 650 nM; IC50 [3, 13]: 720 nM; IC50 [4, 10]: > 5000 nM; IC50 [4, 11]: 4790 nM; IC50 [4, 12]: 1700 nM; IC50 [4, 13]: 1230 nM; IC50 [5, 10]: 370 nM; IC50 [5, 12]: 720 nM; IC50 [6, 10]: 500 nM; IC50 [6, 12]: 430 nM |
| 692 | 389 | 690 | 390 | 480 | 470 | 1230 | 850 | 110 | Cn1nc(-c2cccnc2)cc1CC(=O)Nc1ccc(-c2cc3c(N4CCOCC4)ncnc3[nH]2)cc1 [Compound 11, 2-[1-methyl-3-(pyridin-3-yl)-1H-pyrazol-5-yl]-N-{4-[4-(morpholin-4-yl)-7H-pyrrolo[2,3-d]pyrimidin-6-yl]phenyl}acetamide] | fully inhibited cell viability | fully inhibited cell viability | IC50 ([8]; RS4-11 (MLL-AF4), T7, read-out: IC50 T7): 851 nM |
| > 10000 | > 10000 | > 5000 | > 5000 | > 5000 | > 5000 | 580 | 420 | 260 | O=C(Cc1cc(-c2cccnc2)n[nH]1)Nc1ccc(-c2nc3c(N4CCOCC4)ncnc3[nH]2)cc1 [Compound 12, N-{4-[6-(morpholin-4-yl)-9H-purin-8-yl]phenyl}-2-[3-(pyridin-3-yl)-1H-pyrazol-5-yl]acetamide] | No activity | fully inhibited the cell viability | Kd [9]: 500 ± 200 nM |
